In patent US20170266152A1, “PHARMACEUTICAL COMPOSITION, METHODS FOR TREATING AND USES THEREOF” (Boehringer Ingelheim International GmbH, priority 2016, published 2017):

Experiments:
[1] = crystalline form (WO 2006/117359, WO 2011/039107); cited from earlier work
[2] = Cherney et al. 2014; cited from earlier work
[3] = patients with type 2 diabetes mellitus and high cardiovascular risk; cited from earlier work
[4] = Clinical studies of haemodynamic, vascular and autonomic cardiovascular effects of empagliflozin; assay type: in vivo
From the text: It may be assumed that altered glucose and sodium gradients within the kidney may generate a sympathoinhibitory afferent renal nerve signal. The lack of sympathetic activation may contribute to a beneficial cardiovascular and renal profile of empagliflozin (cardiorenal axis). Based on clinical and non-clinical studies including mechanistic considerations, such as the effect of empagliflozin on human autonomic cardiovascular regulation, the use of empagliflozin in the treatment and prevention of certain diseases and conditions, in particular in chronic heart failure, acute heart failure and chronic kidney disease, is described hereinbefore and hereinafter.

[5] = metformin on its own, in the diabetic; cited from earlier work

SMILES | physico-chemical stability [1] | solubility [1] | arterial stiffness [2] | direct vascular effects [2] | diuretic effect [2] | risk of hospitalization for heart failure [3] | reflex-mediated sympathetic activation ([4]; in contrast to increases observed with diuretics) | blood pressure ([4]; treatment with empagliflozin) | heart rate ([4]; treatment with empagliflozin) | rate pressure product (RPP), surrogate marker of cardiac oxygen demand ([4]; treatment with empagliflozin) | average improvement in the HbA1c value [5]
OC[C@H]1O[C@@H](c2ccc(Cl)c(Cc3ccc(O[C@H]4CCOC4)cc3)c2)[C@H](O)[C@@H](O)[C@@H]1O [empagliflozin, 1-chloro-4-(β-D-glucopyranos-1-yl)-2-[4-((S)-tetrahydrofuran-3-yloxy)-benzyl]-benzene] | physico-chemically stable | good solubility properties | reduced arterial stiffness | direct vascular effects | shows a diuretic effect | reduced the risk | not being associated with clinically relevant reflex-mediated sympathetic activation | blood pressure reductions | without clinically relevant changes of the heart rate | improving rate pressure product | 
CN(C)C(=N)N=C(N)N [metformin] |  |  |  |  |  |  |  |  |  |  | 1.0-1.5%
